Assay results: ChEMBL document CHEMBL1201862, “PubChem BioAssay data set” (2004)
Active and inactive are the calls of the source.

Tests used:
[1] = viability of uninfected HEp-2 cells – cell-based, HTS, cytotoxicity control for RSV inhibitor project, dose response (AID 2410); assay type: functional; conditions: human respiratory syncytial virus
HeLa = experiment: ATP-based viability loss in HeLa cells – cell-based, CellTiter-Glo luminescence, cherry-pick samples, cytotoxicity control for MITF activator project, dose response (AID 540259); assay type: functional; conditions: Homo sapiens
[2] = HIV-1 Vif–A3G interaction blockers – biochemical, TR-FRET, GST-Vif 1-94, biotin-A3G peptide, dose response retest, primary screen (AID 1117319); assay type: functional;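 further: TR-FRET signal of purified GST-Vif binding a biotinylated A3G peptide; inhibitors lower the FRET signal by blocking Vif and A3G binding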
[3] = molecular target: T1, Replicative DNA helicase DnaB (Mycobacterium tuberculosis, UniProt P9WMR3); experiment: DnaB intein splicing inhibitors, dose response, biochemical, cell-free fluorescence (AID 449749); assay type: functional
T1 sequence (P9WMR3 whole entry): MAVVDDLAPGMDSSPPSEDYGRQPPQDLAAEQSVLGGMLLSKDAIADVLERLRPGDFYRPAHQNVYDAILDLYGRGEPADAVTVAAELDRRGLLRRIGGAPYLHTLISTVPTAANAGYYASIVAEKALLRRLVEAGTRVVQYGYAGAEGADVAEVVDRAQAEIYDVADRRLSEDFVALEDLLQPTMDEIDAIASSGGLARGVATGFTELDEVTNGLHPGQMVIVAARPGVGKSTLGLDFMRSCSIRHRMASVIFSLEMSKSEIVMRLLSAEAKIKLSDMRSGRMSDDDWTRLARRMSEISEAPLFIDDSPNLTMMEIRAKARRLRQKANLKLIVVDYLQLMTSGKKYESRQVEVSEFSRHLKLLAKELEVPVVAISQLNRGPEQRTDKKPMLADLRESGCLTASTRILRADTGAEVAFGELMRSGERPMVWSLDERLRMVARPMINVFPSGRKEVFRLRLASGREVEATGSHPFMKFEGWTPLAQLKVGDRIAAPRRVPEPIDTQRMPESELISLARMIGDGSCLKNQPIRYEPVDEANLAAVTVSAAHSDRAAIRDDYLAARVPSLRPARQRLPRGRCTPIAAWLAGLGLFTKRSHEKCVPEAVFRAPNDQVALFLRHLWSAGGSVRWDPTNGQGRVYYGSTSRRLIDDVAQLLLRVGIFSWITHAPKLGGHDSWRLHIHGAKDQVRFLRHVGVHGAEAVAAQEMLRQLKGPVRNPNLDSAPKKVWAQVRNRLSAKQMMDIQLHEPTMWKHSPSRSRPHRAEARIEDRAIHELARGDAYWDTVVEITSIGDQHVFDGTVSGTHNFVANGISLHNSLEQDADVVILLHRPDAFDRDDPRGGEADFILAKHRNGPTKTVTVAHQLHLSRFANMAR

Protein RecA = molecular target: T2, Protein RecA (Mycobacterium tuberculosis, UniProt P9WHJ3); experiment: Fluorescence Cell-Free Homogeneous Dose Retest to Identify Inhibitors of RecA-Intein Splicing Activity. [Related pubchem assays (depositor defined):AID2097, AID2223, AID489010, AID492950]; assay type: functional
T2 sequence (P9WHJ3 whole entry): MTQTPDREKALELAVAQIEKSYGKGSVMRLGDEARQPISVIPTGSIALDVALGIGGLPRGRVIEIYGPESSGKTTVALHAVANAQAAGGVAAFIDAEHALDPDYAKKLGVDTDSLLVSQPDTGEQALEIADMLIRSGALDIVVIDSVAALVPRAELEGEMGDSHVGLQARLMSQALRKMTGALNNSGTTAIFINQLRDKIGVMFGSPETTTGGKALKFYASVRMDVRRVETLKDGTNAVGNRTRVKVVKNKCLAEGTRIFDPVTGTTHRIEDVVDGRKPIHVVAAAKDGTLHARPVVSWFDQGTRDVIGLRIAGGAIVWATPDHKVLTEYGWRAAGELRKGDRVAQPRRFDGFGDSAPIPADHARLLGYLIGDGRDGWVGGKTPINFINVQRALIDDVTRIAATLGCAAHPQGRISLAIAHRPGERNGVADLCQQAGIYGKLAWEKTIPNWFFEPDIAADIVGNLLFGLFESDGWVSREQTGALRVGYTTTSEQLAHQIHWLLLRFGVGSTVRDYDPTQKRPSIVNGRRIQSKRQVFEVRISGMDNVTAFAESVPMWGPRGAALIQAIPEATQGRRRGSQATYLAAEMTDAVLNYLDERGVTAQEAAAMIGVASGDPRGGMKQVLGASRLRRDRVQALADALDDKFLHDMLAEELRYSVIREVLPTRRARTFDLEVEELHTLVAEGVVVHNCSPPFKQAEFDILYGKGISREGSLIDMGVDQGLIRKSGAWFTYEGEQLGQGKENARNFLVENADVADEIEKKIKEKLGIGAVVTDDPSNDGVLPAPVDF

Genome polyprotein = Genome polyprotein (dengue virus type 2, UniProt P29990); experiment: flavivirus cap methylation enzyme inhibition – biochemical, confirmation dose response, primary screen (AID 588689); assay type: functional
[4] = molecular target: Intestinal-type alkaline phosphatase (Mus musculus, UniProt P24822); experiment: PubChem AID 488785; assay type: functional
[5] = molecular target: T3, Alkaline phosphatase, tissue-nonspecific isozyme (Homo sapiens, UniProt P05186); experiment: TNAP enzyme inhibition by screening hits, dose response, selectivity assay for mouse IAP inhibitor project, biochemical, human TNAP, uHTS hits (AID 488906); assay type: functional
T3 sequence (P05186 whole entry): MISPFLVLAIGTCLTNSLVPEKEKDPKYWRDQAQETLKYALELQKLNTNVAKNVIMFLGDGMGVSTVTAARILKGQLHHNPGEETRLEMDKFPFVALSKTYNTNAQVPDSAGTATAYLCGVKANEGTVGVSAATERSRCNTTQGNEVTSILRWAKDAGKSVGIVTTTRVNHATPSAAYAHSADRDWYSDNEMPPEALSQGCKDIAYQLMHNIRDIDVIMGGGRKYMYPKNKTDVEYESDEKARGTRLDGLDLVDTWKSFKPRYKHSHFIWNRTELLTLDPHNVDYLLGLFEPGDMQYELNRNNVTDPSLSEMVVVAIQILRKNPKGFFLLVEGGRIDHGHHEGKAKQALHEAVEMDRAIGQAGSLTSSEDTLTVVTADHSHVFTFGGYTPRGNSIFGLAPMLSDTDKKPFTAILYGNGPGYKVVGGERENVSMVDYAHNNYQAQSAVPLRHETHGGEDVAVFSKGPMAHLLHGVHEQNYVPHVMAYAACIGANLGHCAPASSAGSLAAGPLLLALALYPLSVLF

[6] = molecular target: Intestinal-type alkaline phosphatase (Homo sapiens, UniProt P09923); experiment: inhibition of human intestinal alkaline phosphatase – biochemical, dose response (AID 488876); assay type: functional
HEK293 [7] = experiment: inhibition of NOD1-driven NF-kB reporter – cell-based, luminescence, uHTS, primary screen (AID 1578); assay type: functional; conditions: Homo sapiens
BJ [8] = experiment: BJ-TERT fibroblast viability loss – cell-based, RAS-independent, luminescence, dose response (AID 1933); assay type: functional; conditions: Homo sapiens
HEK293 [9] = experiment: cells; assay type: functional, cell-based; conditions: Homo sapiens
BJ [10] = experiment: cells; assay type: functional, cell-based; conditions: Homo sapiens
HEK293 [11] = experiment: cells; assay type: functional, cell-based; conditions: Homo sapiens; remark: listed apart in the source
HEK293 [12] = experiment: NOD2 signaling inhibitors in MDP-stimulated cells, cell-based, uHTS, luminescence (AID 2001); assay type: functional; conditions: Homo sapiens
BJ [13] = experiment: BJ-TERT-LT-ST fibroblast viability loss – cell-based, RAS-independent, luminescence, dose response (AID 1935); assay type: functional; conditions: Homo sapiens;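 further: BJ fibroblasts immortalized with TERT plus LT and ST oncogenes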
[14] = DRD fibroblast viability loss – cell-based, non-viral oncogenic, luminescence, dose response (AID 1934); assay type: functional; conditions: Homo sapiens
Cytochrome P450 2C9 = Cytochrome P450 2C9 (Homo sapiens, UniProt P11712)
Large T antigen = Large T antigen (Simian virus 40, UniProt P03070); assay type: functional, Betapolyomavirus macacae;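 further: Confirmatory-stage PubChem screen for compounds that inhibit SV40 T antigen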
[15] = molecular target: Luciferin 4-monooxygenase (Photinus pyralis, UniProt P08659); experiment: inhibition of purified Photinus pyralis luciferase – biochemical, luminescence, dose response (AID 1891)
[16] = Luminescence Cell-Based Dose Confirmation HTS to Identify Inhibitors of Platelet Dense Granule Release. [Related pubchem assays: 1663 (Primary HTS), 1678 (Summary of Project)]; assay type: functional
[17] = molecular target: T4, Rac GTPase-activating protein 1 (Homo sapiens, UniProt Q9H0H5); experiment: blockers of MgcRacGAP-driven Rac1 GTP hydrolysis – biochemical, ADP Hunter fluorescence, primary and confirmatory, confirmation (AID 624330); assay type: functional
T4 sequence (Q9H0H5 whole entry): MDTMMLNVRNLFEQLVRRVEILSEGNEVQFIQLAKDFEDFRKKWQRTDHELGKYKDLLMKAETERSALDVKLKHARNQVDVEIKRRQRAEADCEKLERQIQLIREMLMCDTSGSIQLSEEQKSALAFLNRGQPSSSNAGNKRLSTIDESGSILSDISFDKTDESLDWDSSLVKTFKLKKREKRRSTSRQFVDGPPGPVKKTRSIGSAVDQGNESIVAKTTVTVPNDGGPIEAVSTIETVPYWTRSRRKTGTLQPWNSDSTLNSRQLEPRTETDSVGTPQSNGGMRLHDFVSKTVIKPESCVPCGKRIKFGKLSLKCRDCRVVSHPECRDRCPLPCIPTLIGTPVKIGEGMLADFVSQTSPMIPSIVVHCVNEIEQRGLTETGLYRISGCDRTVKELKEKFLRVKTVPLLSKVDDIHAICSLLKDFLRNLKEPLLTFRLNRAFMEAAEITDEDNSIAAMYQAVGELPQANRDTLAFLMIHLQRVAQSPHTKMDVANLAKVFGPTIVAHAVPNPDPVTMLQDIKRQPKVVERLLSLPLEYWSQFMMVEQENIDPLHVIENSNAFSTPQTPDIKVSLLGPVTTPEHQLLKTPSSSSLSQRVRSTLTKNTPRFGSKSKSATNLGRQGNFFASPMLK

Intestinal-type alkaline phosphatase (Homo sapiens, UniProt P09923), sequence (P09923 whole entry): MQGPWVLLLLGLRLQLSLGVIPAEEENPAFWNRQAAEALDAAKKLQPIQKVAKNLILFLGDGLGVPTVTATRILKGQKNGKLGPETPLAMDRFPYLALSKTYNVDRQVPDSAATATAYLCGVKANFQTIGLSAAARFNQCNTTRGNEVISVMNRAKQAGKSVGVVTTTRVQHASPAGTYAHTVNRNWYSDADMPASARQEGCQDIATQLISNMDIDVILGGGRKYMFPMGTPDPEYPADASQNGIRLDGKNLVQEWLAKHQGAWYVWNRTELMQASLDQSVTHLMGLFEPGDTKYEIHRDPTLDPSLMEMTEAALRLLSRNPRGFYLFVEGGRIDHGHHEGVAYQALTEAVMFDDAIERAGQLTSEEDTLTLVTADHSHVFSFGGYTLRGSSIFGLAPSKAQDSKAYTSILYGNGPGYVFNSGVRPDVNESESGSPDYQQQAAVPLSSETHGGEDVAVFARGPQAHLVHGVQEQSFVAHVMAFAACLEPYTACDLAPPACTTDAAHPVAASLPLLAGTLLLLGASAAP
Intestinal-type alkaline phosphatase (Mus musculus, UniProt P24822), sequence (P24822 whole entry): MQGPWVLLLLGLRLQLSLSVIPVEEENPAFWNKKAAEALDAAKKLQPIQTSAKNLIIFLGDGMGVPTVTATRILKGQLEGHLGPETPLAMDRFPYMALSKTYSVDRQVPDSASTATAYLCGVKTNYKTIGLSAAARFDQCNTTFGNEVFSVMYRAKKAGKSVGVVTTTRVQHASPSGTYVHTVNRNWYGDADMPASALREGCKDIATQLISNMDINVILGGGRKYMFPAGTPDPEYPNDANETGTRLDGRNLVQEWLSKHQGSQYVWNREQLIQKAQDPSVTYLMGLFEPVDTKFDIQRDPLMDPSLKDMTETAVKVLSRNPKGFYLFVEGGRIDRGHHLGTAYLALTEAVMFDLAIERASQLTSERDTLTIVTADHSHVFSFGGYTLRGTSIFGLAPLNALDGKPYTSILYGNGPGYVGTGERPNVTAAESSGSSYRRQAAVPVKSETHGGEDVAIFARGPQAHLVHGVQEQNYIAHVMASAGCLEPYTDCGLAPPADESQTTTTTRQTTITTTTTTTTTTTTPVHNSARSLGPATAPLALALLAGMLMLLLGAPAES
Genome polyprotein, sequence (P29990 2492-3391 limits assumed): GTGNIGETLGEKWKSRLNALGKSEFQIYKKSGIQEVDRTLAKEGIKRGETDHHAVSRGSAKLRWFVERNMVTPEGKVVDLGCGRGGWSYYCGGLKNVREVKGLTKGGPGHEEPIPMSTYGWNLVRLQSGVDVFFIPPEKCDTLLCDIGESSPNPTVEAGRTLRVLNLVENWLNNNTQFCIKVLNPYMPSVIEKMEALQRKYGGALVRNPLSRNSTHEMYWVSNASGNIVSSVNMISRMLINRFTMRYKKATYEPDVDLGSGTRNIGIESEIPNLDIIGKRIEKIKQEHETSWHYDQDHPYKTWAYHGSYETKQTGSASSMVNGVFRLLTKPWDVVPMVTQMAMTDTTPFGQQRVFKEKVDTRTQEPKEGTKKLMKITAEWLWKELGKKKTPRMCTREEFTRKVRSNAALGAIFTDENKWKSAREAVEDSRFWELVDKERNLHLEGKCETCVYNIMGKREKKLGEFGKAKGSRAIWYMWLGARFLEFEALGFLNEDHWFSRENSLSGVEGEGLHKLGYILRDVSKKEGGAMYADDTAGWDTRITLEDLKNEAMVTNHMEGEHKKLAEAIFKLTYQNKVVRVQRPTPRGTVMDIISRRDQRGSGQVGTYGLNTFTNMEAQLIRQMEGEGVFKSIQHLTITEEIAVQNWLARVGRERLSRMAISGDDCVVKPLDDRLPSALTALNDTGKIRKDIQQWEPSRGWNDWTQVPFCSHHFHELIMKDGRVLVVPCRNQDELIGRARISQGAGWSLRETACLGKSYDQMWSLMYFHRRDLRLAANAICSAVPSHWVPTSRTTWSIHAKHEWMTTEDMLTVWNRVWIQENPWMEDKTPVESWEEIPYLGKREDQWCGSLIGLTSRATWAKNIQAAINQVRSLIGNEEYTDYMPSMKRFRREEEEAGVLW
Cytochrome P450 2C9, sequence (P11712 whole entry): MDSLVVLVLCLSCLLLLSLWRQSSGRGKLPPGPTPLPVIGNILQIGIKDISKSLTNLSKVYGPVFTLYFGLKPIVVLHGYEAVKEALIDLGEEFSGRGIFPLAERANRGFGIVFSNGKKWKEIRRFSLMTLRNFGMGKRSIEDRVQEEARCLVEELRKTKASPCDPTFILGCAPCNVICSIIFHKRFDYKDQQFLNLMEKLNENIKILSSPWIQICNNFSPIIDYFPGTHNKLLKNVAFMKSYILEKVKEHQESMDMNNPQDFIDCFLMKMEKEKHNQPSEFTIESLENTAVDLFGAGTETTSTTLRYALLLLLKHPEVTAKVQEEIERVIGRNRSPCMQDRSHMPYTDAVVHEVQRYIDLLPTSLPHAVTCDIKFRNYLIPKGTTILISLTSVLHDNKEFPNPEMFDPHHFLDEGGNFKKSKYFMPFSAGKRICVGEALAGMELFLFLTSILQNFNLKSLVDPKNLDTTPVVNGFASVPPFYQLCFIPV
Large T antigen, sequence (P03070 whole entry): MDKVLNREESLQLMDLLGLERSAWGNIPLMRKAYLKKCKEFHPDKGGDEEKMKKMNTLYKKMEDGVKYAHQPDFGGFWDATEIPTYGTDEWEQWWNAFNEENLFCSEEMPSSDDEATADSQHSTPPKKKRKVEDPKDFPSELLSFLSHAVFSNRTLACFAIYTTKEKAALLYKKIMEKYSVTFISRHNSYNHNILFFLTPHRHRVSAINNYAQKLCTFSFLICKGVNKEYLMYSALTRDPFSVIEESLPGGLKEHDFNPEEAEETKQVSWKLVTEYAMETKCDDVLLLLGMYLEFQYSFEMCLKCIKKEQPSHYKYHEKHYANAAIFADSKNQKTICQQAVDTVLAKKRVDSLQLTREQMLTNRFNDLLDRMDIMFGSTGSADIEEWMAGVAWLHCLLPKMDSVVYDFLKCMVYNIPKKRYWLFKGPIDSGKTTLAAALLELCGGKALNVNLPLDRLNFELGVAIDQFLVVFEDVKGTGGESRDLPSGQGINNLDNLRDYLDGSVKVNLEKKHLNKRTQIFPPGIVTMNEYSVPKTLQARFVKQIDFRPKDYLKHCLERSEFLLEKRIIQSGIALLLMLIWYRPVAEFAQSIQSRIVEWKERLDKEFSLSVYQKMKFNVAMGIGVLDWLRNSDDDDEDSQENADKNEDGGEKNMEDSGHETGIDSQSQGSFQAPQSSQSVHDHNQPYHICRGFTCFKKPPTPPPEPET
Luciferin 4-monooxygenase, sequence (P08659 whole entry): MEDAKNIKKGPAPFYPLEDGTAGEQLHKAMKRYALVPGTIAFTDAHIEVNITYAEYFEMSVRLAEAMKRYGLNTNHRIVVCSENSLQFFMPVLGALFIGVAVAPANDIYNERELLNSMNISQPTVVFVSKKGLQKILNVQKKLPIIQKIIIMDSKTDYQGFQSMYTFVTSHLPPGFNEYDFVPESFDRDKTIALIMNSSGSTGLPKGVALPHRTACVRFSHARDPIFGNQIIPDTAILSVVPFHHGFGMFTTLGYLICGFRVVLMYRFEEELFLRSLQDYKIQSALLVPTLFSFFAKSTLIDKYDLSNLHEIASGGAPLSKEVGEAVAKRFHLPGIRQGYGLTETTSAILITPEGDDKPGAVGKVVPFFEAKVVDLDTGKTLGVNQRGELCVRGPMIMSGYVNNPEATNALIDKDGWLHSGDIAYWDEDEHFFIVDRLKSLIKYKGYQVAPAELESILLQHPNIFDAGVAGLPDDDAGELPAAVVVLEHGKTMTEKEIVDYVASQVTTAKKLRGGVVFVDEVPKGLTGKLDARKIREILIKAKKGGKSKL

What does the source list for COc1ccc(-c2ccc3c(N)c(C(=O)NC(C)C)sc3n2)cc1OC?
CC50 [1]: > 50 µM (active); IC50 (cells): 35.9 µM (active)

Which CC50 [1] does the source give for O=S(=O)(c1ccc2c(c1)OCCO2)N1CCC(c2nc(O)c3nnn(Cc4c(F)cccc4Cl)c3n2)CC1 here?
The CC50 was 34.2 µM (active).

And the IC50 (cells)?
The IC50 was 9.34 µM (active).

Which AC50 (HeLa) does the source give for O=c1oc(-c2cccs2)nc2sc3c(c12)CCCCC3 here?
Its AC50 is 47.1 µM (active).

Which CC50 [1] does the source give for COc1ccccc1-c1cc2nc(C)cc(C)n2n1 here?
Its CC50 is 22.5 µM (active).

What about the IC50 (cells) of the same compound?
Its IC50 is 18.8 µM (active).

Which IC50 [2] does the source give for C/C(=C\C(=O)c1ccc(Br)cc1)N1CCCCC1 here?
Its IC50 is > 100 µM (active).

Which AC50 [3] does the source give for Cc1nn(-c2ccccc2)c2c1C(c1cccs1)C(C#N)=C(N)O2 (configuration not stated) here?
Its AC50 is 7 µM (active).

What about the EC50 (Protein RecA) of the same compound?
Its EC50 is 1.83 µM (active).

And the IC50 (Genome polyprotein)?
The IC50 was > 100 µM (active).

Which AC50 (HeLa) does the source give for Cc1ccc(OC(=O)c2cccc(S(=O)(=O)N3CCCC3)c2)c(-n2nc3ccccc3n2)c1 here?
The AC50 was 260 µM (active).

With Cc1ccc(C(c2c(O)n3c(nc2=O)SCC3)c2c(O)n3c(nc2=O)SCC3)cc1 as the compound, how does the IC50 (Genome polyprotein) read?
The IC50 was 84.2 µM (active).

For C=CCn1cc(CN2CCC(C(=O)Nc3cccc(-c4cccc(Cl)c4)c3)CC2)c(C)n1, which IC50 [4] is on record?
The IC50 was 10.3 µM (active).

And the IC50 [5]?
Its IC50 is 5.84 µM (active).

What about the IC50 [6] of the same compound?
The IC50 was 14.3 µM (active).

Which EC50 (HEK293 [7]) does the source give for CCc1nc(N2CCN(C(=O)CCl)CC2)c2c3c(sc2n1)CC(C)CC3 (configuration not stated) here?
The EC50 was > 20 µM (inactive).

And the EC50 (BJ [8])?
The EC50 was 1.62 µM (active).

And the IC50 (HEK293 [9])?
The IC50 was 8.57 µM (active).

What about the EC50 (BJ [10]) of the same compound?
The EC50 was 9.44 µM (inconclusive).

What about the IC50 (HEK293 [11]) of the same compound?
Its IC50 is > 20 µM (inactive).

And the IC50 (HEK293 [12])?
The IC50 was 12 µM (inactive).

And the EC50 (BJ [13])?
Its EC50 is 5.72 µM (inconclusive).

And the EC50 [14]?
The EC50 was 5.84 µM (active).

What about the AC50 [3] of the same compound?
Its AC50 is 1.92 µM (active).

And the EC50 (Protein RecA)?
The EC50 was 0.729 µM (active).

With Cc1ccc(-n2nnnc2SCn2nnc3ccccc3c2=O)cc1 as the compound, how does the IC50 [2] read?
The IC50 was > 100 µM (active).

Which AC50 (HeLa) does the source give for Clc1ccc(-c2nnc(CCc3ccccc3)o2)c(Cl)c1 here?
Its AC50 is 78.9 µM (active).

And the AC50 (Cytochrome P450 2C9)?
Its AC50 is 39.8 µM (inconclusive).

Which IC50 [2] does the source give for CCN(CC(=O)Nc1c(F)cccc1F)C(=O)CSC(=S)N1CCCC1 here?
Its IC50 is > 100 µM (active).

With Cc1nonc1C(=O)N/N=C/c1ccc(O)c(O)c1 as the compound, how does the IC50 (Large T antigen) read?
Its IC50 is 3.81 µM (active).

What about the EC50 [15] of the same compound?
The EC50 was 4.26 µM (active).

And the EC50 [16]?
Its EC50 is 0.868 µM (active).

What about the IC50 [4] of the same compound?
The IC50 was 9.92 µM (active).

And the IC50 [5]?
Its IC50 is 16.8 µM (active).

What about the IC50 [6] of the same compound?
Its IC50 is 14 µM (active).

What about the IC50 [17] of the same compound?
The IC50 was 18.6 µM (active).

With COC(=O)N/N=C/c1ccc(-c2cccc(Cl)c2)o1 as the compound, how does the CC50 [1] read?
The CC50 was 28.3 µM (active).

And the IC50 (cells)?
Its IC50 is 24.9 µM (active).

Which IC50 [4] does the source give for O=C1c2cccc(O)c2C(=O)c2c(O)cc(CO)cc21 [ALOE-EMODIN] here?
Its IC50 is 2.88 µM (active).

What about the IC50 [5] of the same compound?
Its IC50 is > 100 µM (inactive).

And the IC50 [6]?
Its IC50 is > 100 µM (inactive).
